The text below walks through data of ChEMBL document CHEMBL2311300, “Fragment-based design, synthesis, and biological evaluation of N-substituted-5-(4-isopropylthiophenol)-2-hydroxynicotinamide derivatives as novel Mcl-1 inhibitors” (Eur J Med Chem, 2013).

In general, IC50 refers to the midpoint of a concentration-inhibition curve. As usually defined, the Ki is the dissociation constant of the complex between target and ligand, obtained from inhibition or displacement. By Kd is commonly meant the free concentration of one partner at which half of the binding sites on the other are occupied at equilibrium, for simple one-to-one binding.

Assay [1] has as its target T1, Induced myeloid leukemia cell differentiation protein Mcl-1 (Homo sapiens, UniProt Q07820). As to the kind of experiment: Inhibition of FAM-Bid peptide binding to Mcl1 (unknown origin) expressed in Escherichia coli BL21 by fluorescence polarization-based binding assay. Background: In fluorescence polarisation assays a small probe gives low polarisation when free and higher when bound to something large.

For assay [2], the target named is T1, Induced myeloid leukemia cell differentiation protein Mcl-1. As to the kind of experiment: Inhibition of biotin-Bim peptide binding to Mcl1 (unknown origin) expressed in Escherichia coli BL21 by ELISA. Background: ELISA stands for enzyme-linked immunosorbent assay.
The subject of the next assay is K562. Description: Induction of apoptosis in Mcl1 dependent human K562 cells after 48 hrs by Annexin V staining based flow cytometry. In kind it is functional, cell-based. The conditions noted are these: K562, 48 h. A general note: Flow cytometry measures light scatter and fluorescence of single cells or particles in a stream.
The next assay relates to RS4-11. Description: Induction of apoptosis in Bcl2 dependent human RS4:11 cells after 48 hrs by Annexin V staining based flow cytometry. The settings on record: RS4-11, 48 h. In kind it is functional, cell-based.
For assay [3], the target named is T1, Induced myeloid leukemia cell differentiation protein Mcl-1. As to the kind of experiment: Binding affinity to Mcl1 (unknown origin) expressed in Escherichia coli BL21 by ITC assay.

Molecules are shown by their SMILES.

T1 sequence (Q07820 whole entry): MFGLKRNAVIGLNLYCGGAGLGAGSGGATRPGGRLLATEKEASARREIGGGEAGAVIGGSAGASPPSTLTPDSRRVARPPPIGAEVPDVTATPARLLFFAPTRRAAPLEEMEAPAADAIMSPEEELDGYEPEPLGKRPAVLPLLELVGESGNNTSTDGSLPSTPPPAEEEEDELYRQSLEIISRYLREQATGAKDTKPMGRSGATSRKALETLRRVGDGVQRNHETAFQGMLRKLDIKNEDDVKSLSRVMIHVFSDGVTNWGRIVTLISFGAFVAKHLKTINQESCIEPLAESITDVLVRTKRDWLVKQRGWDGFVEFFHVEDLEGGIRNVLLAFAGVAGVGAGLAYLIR

Consider `CC(C)c1ccc(Sc2cc(C#N)c(=O)n(Cc3ccccc3)c2)cc1`, for which the IC50 in assay [1] (read-out: IC50) is 383 µM. Moreover, the Ki in assay [1] (read-out: Ki) was 15.3 µM.
In the case of `CC(C)c1ccc(Sc2c[nH]c(=O)c(C#N)c2)cc1`, the IC50 in assay [2] came out at 0.89 µM; in assay [1] (read-out: IC50), 21.5 µM. Also, the Ki in assay [2] is 0.891 µM; in assay [1] (read-out: Ki) it was 0.86 µM.
As to `N#Cc1cc(-c2cccc3ccccc23)cnc1O`, the IC50 in assay [1] (read-out: IC50) was 158 µM. For the same compound, in assay [1] (read-out: Ki), the Ki stood at 6.32 µM.
Take `COc1ccnc(O)c1C#N`: in assay [1], the half-maximal inhibitory concentration (IC50) entry is listed as “Not Active” and the Ki entry is on record as “Not Active”.
Consider `CCCCNC(=O)c1cc(Sc2ccc(C(C)C)cc2)c[nH]c1=O`, for which, in assay [2], the half-inhibitory concentration (IC50) was determined as 0.241 µM and the Ki was 0.224 µM.
In the case of `N#Cc1cc(Sc2ccc(Br)cc2)c[nH]c1=O`, the IC50 in assay [1] (read-out: IC50) is 121 µM. Besides, the Ki in assay [1] (read-out: Ki) turned out to be 4.83 µM.
Regarding `CN(C)CC[C@H](CSc1ccccc1)Nc1ccc(S(=O)(=O)NC(=O)c2ccc(N3CCN(Cc4ccccc4-c4ccc(Cl)cc4)CC3)cc2)cc1[N+](=O)[O-]` [ABT 737], the IC50 came out at 16.4 µM in the assay on K562 and 0.27 µM in the assay with RS4-11.
With `N#Cc1cc(-c2ccccc2)c[nH]c1=O`, in assay [1] (read-out: IC50), the IC50 is 261 µM. Besides, the Ki in assay [1] (read-out: Ki) was 10.4 µM.
In assay [2], `CC(C)c1ccc(Sc2cnc(O)c(C(=O)NCCCc3ccccc3)c2)cc1` showed an IC50 of 0.192 µM and a Ki of 0.191 µM.
Turning to `N#Cc1cc(-c2ccc(-c3ccccc3)cc2)cnc1O`, the IC50 in assay [1] (read-out: IC50) was found to be 316 µM. Also, the Ki in assay [1] (read-out: Ki) was determined as 12.6 µM.
The like results for `CCC(C)(C)c1ccc(Sc2cnc(O)c(C#N)c2)cc1` were, in that order, 178 µM and 7.09 µM.
Consider `O=C1C(=O)c2cccc3cccc1c23` [ACENAPHTHOQUINONE], for which the IC50 in assay [1] (read-out: IC50) was 1420 µM. For the same compound, the Ki in assay [1] (read-out: Ki) came out at 57 µM.
In the same order, the values of `N#Cc1cc(Sc2ccccc2)c[nH]c1=O` are 82.2 µM and 3.29 µM.
In the same order, the values of `N#Cc1cc(-c2ccc(Cl)cc2)c[nH]c1=O` are 205 µM and 8.19 µM.
In turn, `CC(C)c1ccc(Sc2cnc(O)c(C(=O)NCc3ccccc3)c2)cc1` had an IC50 with K562 of 0.84 µM. This compound also returned a Kd in assay [3] of 0.98 µM. In addition, in assay [2], the IC50 was 0.054 µM and affinity was put at a Ki of 0.0537 µM.
As to `Cc1ccc(Sc2cnc(O)c(C#N)c2)cc1`, the IC50 in assay [1] (read-out: IC50) worked out at 63.1 µM. In addition, the inhibition constant Ki in assay [1] (read-out: Ki) amounted to 2.52 µM.
For the compound `N#Cc1cc(Sc2ccc(N)cc2)c[nH]c1=O`, in assay [1] (read-out: IC50), the IC50 was 133 µM. Also, in assay [1] (read-out: Ki), the Ki stood at 5.31 µM.
As for `Cc1cc2c(C(C)C)c(O)c(O)c(C=O)c2c(O)c1-c1c(C)cc2c(C(C)C)c(O)c(O)c(C=O)c2c1O` [GOSSYPOL], the concentration for half-maximal inhibition (IC50) in assay [2] was determined as 0.17 µM; in assay [1] (read-out: IC50), 4.8 µM. The Ki was 0.214 µM in assay [2] and 0.19 µM in assay [1] (read-out: Ki).
With `N#CC1=C2C(=NC1=O)c1cccc3c(N4CCSCC4)ccc2c13`, in assay [2], the IC50 was 0.046 µM and the affinity corresponds to a Ki of 0.0457 µM.
On to `CC(C)NC(=O)c1cc(Sc2ccc(C(C)C)cc2)c[nH]c1=O`, for which, in assay [2], the IC50 turned out to be 0.501 µM and the affinity, expressed as Ki, was 0.468 µM.
`N#Cc1ccc[nH]c1=O`: the IC50 in assay [1] (read-out: IC50) was found to be 2730 µM. In addition, the Ki in assay [1] (read-out: Ki) was determined as 109 µM.
Take `N#CC(C#N)=c1c(=O)c2cccc3cccc1c32`: the IC50 in assay [1] (read-out: IC50) came out at 71.5 µM. The Ki in assay [1] (read-out: Ki) was determined as 2.85 µM.
